Source: US20130310347A1, “MULTI-MODALITY MOLECULAR IMAGING HIGH-THROUGHPUT ASSAY FOR IDENTIFYING HEAT SHOCK PROTEIN 90 (HSP90) INHIBITORS” (The Board of Trustees of the Leland Stanford Junior …, priority 2012, published 2013)

Tests used:
cellular Hsp90 = test: 3H-17AAG uptake in intact HT29 cells; type: cell-based; settings: CP9 0.4 to 12.5 μM, 3H-17AAG 0.5 μM, 1 h, dose-dependent, p<0.05
Procedure: FIG. 5D is a graph illustrating the inhibition of ^3H-17AAG uptake by CP9 in HT29 cells. HT29 cells were pre-incubated with different concentrations of CP9 together with ^3H-17AAG (0.5 μM) for 1 h followed by 1 h of wash-out of unbound ^3H-17AAG in fresh medium. The amount of ^3H-17-AAG incorporated intracellularly was determined by scintillation counting of cell lysates, followed by normalization for protein content and to carrier control-treated cells. Cells incubated with 5 μM of PU-H71 served as a positive control. Results are expressed as means of triplicates±S.E.M. *, p<0.05 vs. carrier control-treated cells.
To confirm the direct binding of CP9 to Hsp90(α/β), an in vitro competitive binding assay using purified Hsp90α and Hsp90β was performed using radiolabeled Hsp90 inhibitor ^3H-17AAG. Hsp90 proteins were pre-bound with CP9 or cold 17-AAG as a control prior to incubation with ^3H-17AAG. Unbound ^3H-17AAG was removed and the amount of ^3H-17AAG bound to the Hsp90 proteins was determined. […]
To determine if CP9 binds to cellular Hsp90, an uptake study of ^3H-17AAG (Moravek Biochemicals, Brea, Calif.) was performed. […] The total counts in each sample were normalized to that of the dose added to each well and to the amount of protein, and expressed as mean counts/dose/μg protein±S.E.M.

[1] = logP value (partition coefficient); type: physicochemical
pAkt/total Akt and Raf-1 = test: Western blotting of client proteins in 293T-FG cells (CP9 analogues); type: cell-based, human; settings: different concentrations
Procedure: Cells treated with PU-H71 and 17-AAG (2.5 μM) served as positive controls. α-Tubulin was used as the loading control.
To determine if the reduction in IC50 for Hsp90(α/β)/p23 interactions also led to improved efficacy of A17 as an Hsp90 inhibitor, 293T-FG cells were treated with different concentrations of CP9 and A17. PU-H71 and 17AAG were used as positive controls. The expression of pAkt/total Akt and Raf-1 was determined by western blotting. […] Since A17 has a lower logP value (partition coefficient) than CP9 (2.8 versus 4.1), it may be more hydrophilic, have less non-specific binding to serum proteins and thus better bioavailability in tumors.
CP9 (0.3-10 μM), 17-AAG (10 μM) and PU-H71 (5 μM) were used as positive controls in triplicate wells. The efficacy of the analogues in disruption of Hsp90(α/β)/p23 and cell proliferation were monitored by RL imaging (2 h post upon addition of ENDUREN® at 30 μM final concentration) followed by FL imaging (10 mins post addition of D-Luc at 0.225 mg/ml final concentration) using a cooled CCD camera (1 min and 10 sec for RL and FL imaging, respectively). RL signals were normalized to that of FL signals to account for the effect of the analogues on cell proliferation. […] The effect of the CP9 analogues on degradation of Hsp90 client proteins in 293T cells were also monitored by western blotting as described above.

purified Hsp90α = purified Hsp90α (Homo sapiens, UniProt P07900); test: In vitro competitive binding with 3H-17AAG; settings: CP9 200 μM pre-incubation; p<0.05
Procedure: (§1) FIG. 5C is a graph illustrating the competitive in vitro binding of CP9 with ^3H-17AAG to Hsp90(α/β). Purified Hsp90(α/β) was pre-incubated with CP9 (200 μM) or cold 17-AAG (50 μM) prior to incubation with ^3H-17AAG. The reaction complexes were then eluted through a desalting column to remove any unbound ^3H-17AAG prior to scintillation counting for the amount of ^3H-17AAG bound to Hsp90(α/β). Columns incubated with ^3H-17AAG alone served as negative controls. Results are expressed as means of triplicates±S.E.M. *, p<5×10^−6 vs. carrier control-treated cells.
(§2) To confirm the direct binding of CP9 to Hsp90(α/β), an in vitro competitive binding assay using purified Hsp90α and Hsp90β was performed using radiolabeled Hsp90 inhibitor ^3H-17AAG. Hsp90 proteins were pre-bound with CP9 or cold 17-AAG as a control prior to incubation with ^3H-17AAG. Unbound ^3H-17AAG was removed and the amount of ^3H-17AAG bound to the Hsp90 proteins was determined. […] To confirm cellular Hsp90 as the target of CP9, uptake studies in intact HT29 cells were performed by monitoring the competitive binding of ^3H-17AAG. […]
(§3) To verify the binding of CP9 to Hsp90α and Hsp90β in vitro, a displacement assay using ^3H-17AAG was performed. […] The amount of ^3H-17AAG that remained bound to Hsp90α or Hsp9013 was determined by scintillation counting.

purified Hsp90β = purified Hsp90β (Homo sapiens, UniProt P08238); test: In vitro competitive binding with 3H-17AAG; settings: CP9 200 μM pre-incubation
purified Hsp90β, sequence (P08238 whole entry): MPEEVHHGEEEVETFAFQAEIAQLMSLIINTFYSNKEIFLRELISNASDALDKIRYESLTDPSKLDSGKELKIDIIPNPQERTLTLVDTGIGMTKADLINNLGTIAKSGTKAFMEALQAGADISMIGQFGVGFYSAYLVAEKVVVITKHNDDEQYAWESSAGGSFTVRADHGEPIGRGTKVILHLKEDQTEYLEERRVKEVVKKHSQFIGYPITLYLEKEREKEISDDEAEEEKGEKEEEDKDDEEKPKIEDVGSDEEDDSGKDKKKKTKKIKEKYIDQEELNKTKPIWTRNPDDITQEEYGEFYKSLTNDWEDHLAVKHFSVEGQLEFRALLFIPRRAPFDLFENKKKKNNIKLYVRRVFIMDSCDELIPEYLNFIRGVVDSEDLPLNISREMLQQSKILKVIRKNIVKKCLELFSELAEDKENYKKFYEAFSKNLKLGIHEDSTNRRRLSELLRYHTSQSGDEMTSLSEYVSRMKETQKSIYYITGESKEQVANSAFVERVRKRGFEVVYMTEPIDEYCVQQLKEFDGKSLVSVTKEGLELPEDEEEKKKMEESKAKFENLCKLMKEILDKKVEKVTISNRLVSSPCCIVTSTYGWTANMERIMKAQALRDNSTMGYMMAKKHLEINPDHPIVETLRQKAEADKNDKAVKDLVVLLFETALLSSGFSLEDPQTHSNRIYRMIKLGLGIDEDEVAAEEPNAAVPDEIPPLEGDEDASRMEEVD
Procedure: as §1, §2, §3

In the case of `Cc1cc(NC(=O)CSc2nc(-c3cccs3)cc(C(F)(F)F)n2)no1` [CP9, N-(5-methylisoxazol-3-yl)-2-(4-(thiophen-2-yl)-6-(trifluoromethyl)pyrimidin-2-ylthio)acetamide], the “maximum reduction in uptake of 3H-17AAG relative to carrier control” value (cellular Hsp90) is reported as 30%, the logP [1] is reported as 4.1 and the “degradation of pAkt/total Akt and Raf-1” value (pAkt/total Akt and Raf-1) is reported as “dose-dependent decreases”. The “reduction of binding of 3H-17AAG to purified Hsp90α” value (purified Hsp90α) was “about 50%” and the “binding of 3H-17AAG to Hsp90β” value (purified Hsp90β) was “did not significantly affect”.
